From patent US9469674B2 (HAINAN UNIVERSITY, dated 2016)
“Also recorded” adds a separate entry of the source. Where a SMILES comes first, the peptide text is derived from it. Bridges are numbered along the chain shown (N, C = ends). Where no end group is shown, it is not given here.

Legend:
α3β2 nAChR = α3β2 nAChR (Rattus norvegicus, UniProt P04757+P12390); test: cell-based; format: cell-based; conditions: for IC50: IC50 (half-blocking dose)
α6/α3β4 nAChR = α6/α3β4 nAChR (Rattus norvegicus, UniProt P04757+P12392+P43143); test: cell-based; format: cell-based
Chain of α6/α3β4 nAChR (P04757 whole entry, looked up): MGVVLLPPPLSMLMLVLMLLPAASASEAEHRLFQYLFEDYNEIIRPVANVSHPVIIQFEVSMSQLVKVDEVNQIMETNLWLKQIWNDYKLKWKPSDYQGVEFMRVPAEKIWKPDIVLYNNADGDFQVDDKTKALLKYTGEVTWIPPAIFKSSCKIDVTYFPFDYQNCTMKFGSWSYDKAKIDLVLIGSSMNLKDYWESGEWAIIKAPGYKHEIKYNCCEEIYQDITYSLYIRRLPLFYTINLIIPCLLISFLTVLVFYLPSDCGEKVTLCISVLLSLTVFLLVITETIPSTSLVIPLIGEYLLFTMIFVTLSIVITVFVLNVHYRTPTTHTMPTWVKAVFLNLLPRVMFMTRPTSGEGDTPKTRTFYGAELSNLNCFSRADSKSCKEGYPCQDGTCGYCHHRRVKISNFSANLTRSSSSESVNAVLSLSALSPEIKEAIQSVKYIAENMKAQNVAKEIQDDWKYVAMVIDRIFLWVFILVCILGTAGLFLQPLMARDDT
Chain of α6/α3β4 nAChR (P12392 whole entry, looked up): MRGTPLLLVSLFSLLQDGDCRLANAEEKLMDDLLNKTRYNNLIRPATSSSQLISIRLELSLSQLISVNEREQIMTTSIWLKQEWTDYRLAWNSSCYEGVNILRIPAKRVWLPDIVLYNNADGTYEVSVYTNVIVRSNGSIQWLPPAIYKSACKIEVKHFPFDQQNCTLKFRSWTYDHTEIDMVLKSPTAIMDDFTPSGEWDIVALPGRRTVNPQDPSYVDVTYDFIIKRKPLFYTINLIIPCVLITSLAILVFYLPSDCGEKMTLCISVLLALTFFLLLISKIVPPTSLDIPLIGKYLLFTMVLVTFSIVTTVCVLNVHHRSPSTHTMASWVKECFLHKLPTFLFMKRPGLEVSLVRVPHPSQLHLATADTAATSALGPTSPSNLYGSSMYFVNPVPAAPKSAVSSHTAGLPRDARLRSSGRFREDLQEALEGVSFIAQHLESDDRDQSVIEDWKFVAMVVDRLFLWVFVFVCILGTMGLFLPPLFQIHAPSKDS
Chain of α6/α3β4 nAChR (P43143 whole entry, looked up): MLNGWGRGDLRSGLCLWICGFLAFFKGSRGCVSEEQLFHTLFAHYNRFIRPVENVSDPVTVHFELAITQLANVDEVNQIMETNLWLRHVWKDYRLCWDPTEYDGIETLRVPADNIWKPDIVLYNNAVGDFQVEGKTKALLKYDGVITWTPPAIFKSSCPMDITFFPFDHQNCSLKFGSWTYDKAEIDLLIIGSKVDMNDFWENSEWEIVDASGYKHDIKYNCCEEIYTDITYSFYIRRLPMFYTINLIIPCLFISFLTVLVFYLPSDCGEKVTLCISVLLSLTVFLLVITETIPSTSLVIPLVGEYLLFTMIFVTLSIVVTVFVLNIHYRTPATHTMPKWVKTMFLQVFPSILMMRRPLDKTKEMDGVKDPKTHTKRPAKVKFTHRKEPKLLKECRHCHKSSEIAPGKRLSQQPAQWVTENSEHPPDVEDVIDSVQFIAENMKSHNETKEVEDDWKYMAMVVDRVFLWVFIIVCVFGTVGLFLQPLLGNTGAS

α3β4 nAChR = α3β4 nAChR (Rattus norvegicus, UniProt P04757+P12392); test: cell-based; format: cell-based
α6/α3β2β3 nAChR = α6/α3β2β3 nAChR (Rattus norvegicus, UniProt P04757+P12390+P43143); test: cell-based; format: cell-based
Chain of α6/α3β2β3 nAChR (P04757 whole entry, looked up): as the sequence (P04757 whole entry, looked up) above
Chain of α6/α3β2β3 nAChR (P12390 whole entry, looked up): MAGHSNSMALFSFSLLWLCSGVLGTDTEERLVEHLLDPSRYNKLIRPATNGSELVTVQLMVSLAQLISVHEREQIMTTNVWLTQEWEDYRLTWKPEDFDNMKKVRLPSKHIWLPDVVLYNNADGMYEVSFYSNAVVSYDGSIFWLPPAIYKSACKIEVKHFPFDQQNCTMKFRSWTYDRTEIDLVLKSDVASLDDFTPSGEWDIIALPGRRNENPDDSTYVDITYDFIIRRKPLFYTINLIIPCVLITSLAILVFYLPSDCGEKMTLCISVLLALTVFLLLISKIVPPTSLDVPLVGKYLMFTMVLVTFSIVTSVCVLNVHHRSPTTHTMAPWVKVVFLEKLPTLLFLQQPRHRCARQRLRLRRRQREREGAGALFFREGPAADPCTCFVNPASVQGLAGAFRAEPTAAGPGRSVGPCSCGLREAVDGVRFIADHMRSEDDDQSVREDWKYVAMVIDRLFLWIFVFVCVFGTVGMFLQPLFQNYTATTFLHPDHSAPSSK
Chain of α6/α3β2β3 nAChR (P43143 whole entry, looked up): as the sequence (P43143 whole entry, looked up) above

α7 nAChR = α7 nAChR (Rattus norvegicus, UniProt Q05941); test: cell-based; format: cell-based
Chain of α7 nAChR (Q05941 23-502 limits assumed): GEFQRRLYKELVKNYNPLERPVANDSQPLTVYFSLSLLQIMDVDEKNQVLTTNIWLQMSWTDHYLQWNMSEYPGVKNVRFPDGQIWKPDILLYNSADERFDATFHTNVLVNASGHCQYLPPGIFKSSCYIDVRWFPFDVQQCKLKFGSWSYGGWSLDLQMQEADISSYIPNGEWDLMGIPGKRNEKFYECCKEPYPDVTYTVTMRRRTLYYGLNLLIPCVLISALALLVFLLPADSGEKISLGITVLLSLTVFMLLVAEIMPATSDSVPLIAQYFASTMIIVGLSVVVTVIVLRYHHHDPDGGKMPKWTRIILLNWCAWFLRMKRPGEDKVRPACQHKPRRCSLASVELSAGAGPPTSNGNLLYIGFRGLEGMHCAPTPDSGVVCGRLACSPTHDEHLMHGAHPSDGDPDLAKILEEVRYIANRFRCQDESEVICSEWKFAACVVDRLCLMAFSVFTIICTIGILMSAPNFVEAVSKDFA

α2β4 nAChR = α2β4 nAChR (Rattus norvegicus, UniProt P12389+P12392); test: cell-based; format: cell-based
α9α10 nAChR = α9α10 nAChR (Rattus norvegicus, UniProt P43144+Q9JLB5); test: cell-based
α2β2 nAChR = α2β2 nAChR (Rattus norvegicus, UniProt P12389+P12390); test: cell-based; format: cell-based
α4β2 nAChR = α4β2 nAChR (Rattus norvegicus, UniProt P09483+P12390); test: cell-based
α4β4 nAChR = α4β4 nAChR (Rattus norvegicus, UniProt P09483+P12392); test: cell-based; format: cell-based
human α6/α3β2β3 nAChR = human α6/α3β2β3 nAChR (Homo sapiens, UniProt P17787+P32297+Q15825); test: cell-based; format: cell-based
[1] = target: α3β4 acetylcholine receptor; conditions: read-out: half-blocking dose IC50; cited from earlier work
[2] = target: α3β2 acetylcholine receptor (Homo sapiens, UniProt P17787+P32297); conditions: read-out: half-blocking dose IC50; cited from earlier work
Chain of α3β2 acetylcholine receptor (P32297 32-505 limits assumed): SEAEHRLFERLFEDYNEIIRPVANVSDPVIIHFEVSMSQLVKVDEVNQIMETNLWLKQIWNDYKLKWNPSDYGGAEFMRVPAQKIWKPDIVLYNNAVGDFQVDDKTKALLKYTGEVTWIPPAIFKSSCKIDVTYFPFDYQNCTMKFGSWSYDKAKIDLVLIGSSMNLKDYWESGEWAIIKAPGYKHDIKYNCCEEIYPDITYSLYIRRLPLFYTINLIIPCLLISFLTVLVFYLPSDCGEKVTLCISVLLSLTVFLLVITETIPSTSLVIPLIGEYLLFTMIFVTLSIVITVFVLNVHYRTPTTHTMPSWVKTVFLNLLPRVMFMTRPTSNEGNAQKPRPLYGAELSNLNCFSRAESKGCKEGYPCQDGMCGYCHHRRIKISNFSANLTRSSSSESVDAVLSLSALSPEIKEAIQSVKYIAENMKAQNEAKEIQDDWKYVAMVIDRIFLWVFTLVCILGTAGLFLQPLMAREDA
Chain of α3β2 acetylcholine receptor (P17787 26-502 limits assumed): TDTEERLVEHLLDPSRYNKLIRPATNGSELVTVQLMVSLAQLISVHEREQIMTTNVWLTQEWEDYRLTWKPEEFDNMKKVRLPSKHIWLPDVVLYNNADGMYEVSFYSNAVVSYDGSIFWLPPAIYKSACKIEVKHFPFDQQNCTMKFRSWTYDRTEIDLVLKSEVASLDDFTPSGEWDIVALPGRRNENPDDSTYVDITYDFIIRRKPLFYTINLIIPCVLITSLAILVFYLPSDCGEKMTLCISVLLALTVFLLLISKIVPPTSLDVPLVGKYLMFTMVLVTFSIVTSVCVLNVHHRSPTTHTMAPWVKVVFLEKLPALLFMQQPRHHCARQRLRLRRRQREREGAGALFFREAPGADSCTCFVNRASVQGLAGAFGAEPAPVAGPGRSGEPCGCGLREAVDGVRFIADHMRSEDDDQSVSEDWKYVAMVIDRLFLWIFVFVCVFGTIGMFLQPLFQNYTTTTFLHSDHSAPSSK

[3] = target: α7 acetylcholine receptor (Homo sapiens, UniProt P36544); conditions: read-out: half-blocking dose IC50; cited from earlier work
Chain of α7 acetylcholine receptor (P36544 23-502 limits assumed): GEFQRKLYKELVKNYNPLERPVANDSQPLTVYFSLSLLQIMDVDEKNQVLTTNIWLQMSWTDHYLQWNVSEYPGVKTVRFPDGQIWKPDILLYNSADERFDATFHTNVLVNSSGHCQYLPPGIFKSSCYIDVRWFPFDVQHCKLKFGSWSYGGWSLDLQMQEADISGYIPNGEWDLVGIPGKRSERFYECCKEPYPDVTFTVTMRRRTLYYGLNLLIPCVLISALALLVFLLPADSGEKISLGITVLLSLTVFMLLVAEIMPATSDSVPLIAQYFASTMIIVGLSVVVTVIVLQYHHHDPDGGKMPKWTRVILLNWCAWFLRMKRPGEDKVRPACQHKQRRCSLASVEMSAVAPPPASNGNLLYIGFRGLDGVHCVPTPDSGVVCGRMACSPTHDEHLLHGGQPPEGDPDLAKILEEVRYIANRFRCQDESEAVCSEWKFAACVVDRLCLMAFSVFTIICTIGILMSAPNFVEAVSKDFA

[4] = target: α6/α3β2β3 acetylcholine receptor; conditions: read-out: half-blocking dose IC50; cited from earlier work
[5] = target: α6/α3β4 acetylcholine receptor; conditions: read-out: half-blocking dose IC50; cited from earlier work
other nAChRs subtypes = format: cell-based; conditions: read-out: IC50 on other nAChRs subtypes (no blocking activity)
[6] = target: α9α10 acetylcholine receptor (Homo sapiens, UniProt Q9GZZ6+Q9UGM1); conditions: read-out: half-blocking dose IC50; cited from earlier work
Chain of α9α10 acetylcholine receptor (Q9UGM1 26-479 limits assumed): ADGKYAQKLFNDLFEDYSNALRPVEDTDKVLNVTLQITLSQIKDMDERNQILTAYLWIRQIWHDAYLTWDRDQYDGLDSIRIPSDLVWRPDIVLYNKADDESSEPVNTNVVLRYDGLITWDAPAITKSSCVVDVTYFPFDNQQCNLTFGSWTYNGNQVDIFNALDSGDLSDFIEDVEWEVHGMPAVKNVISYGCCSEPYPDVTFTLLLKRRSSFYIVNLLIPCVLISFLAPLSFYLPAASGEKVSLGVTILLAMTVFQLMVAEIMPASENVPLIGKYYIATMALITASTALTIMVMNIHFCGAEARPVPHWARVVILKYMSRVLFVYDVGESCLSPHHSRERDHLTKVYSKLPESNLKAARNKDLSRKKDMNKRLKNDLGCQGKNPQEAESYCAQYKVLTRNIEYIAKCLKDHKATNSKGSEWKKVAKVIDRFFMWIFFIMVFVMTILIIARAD
Chain of α9α10 acetylcholine receptor (Q9GZZ6 25-450 limits assumed): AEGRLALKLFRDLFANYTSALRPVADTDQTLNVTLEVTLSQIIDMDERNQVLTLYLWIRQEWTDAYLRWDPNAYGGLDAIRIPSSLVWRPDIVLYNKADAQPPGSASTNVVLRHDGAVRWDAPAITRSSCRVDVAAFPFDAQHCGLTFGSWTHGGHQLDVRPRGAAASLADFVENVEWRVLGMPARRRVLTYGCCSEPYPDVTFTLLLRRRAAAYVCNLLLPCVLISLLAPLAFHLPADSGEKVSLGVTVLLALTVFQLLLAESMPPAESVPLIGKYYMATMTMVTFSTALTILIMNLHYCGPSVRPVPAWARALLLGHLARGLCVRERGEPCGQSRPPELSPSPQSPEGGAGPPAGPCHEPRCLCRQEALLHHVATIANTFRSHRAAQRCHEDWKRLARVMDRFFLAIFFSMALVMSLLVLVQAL

nAChRs = conditions: cited from earlier work
[7] = target: rat α6/α3β2β3 nAChR (rat) (UniProt P12390)
rat α6/α3β4 nAChR (rat) = rat α6/α3β4 nAChR (rat) (UniProt P12392)
rat α2β4 nAChR = rat α2β4 nAChR (rat, UniProt P12389); test: cell-based or functional assay
rat α9α10 nAChR = rat α9α10 nAChR (rat, UniProt P43144); test: cell-based or functional assay
rat α2β2 nAChR = rat α2β2 nAChR (rat, UniProt P12389); test: cell-based or functional assay
rat α4β2 nAChR = rat α4β2 nAChR (rat, UniProt P09483); test: cell-based or functional assay
rat α4β4 nAChR = rat α4β4 nAChR (rat, UniProt P09483); test: cell-based or functional assay
rat α3β2 nAChR = rat α3β2 nAChR (rat, UniProt P04757); test: cell-based or functional assay
rat α3β4 nAChR = rat α3β4 nAChR (rat, UniProt P04757); test: cell-based or functional assay
rat α7 nAChR = rat α7 nAChR (rat, UniProt Q05941); test: cell-based or functional assay

For `CC(C)C[C@@H]1NC(=O)[C@H](CC(=O)O)NC(=O)[C@@H]2CCCN2C(=O)[C@H](Cc2c[nH]cn2)NC(=O)[C@H](CCCCN)NC(=O)[C@H](CC(N)=O)NC(=O)[C@H](CCCNC(=N)N)NC(=O)[C@@H]2CSSC[C@H](NC(=O)CN)C(=O)N[C@@H](CSSC[C@@H](C(=O)NCC(N)=O)NC1=O)C(=O)N[C@@H](CO)C(=O)N[C@@H](CC(=O)O)C(=O)N1CCC[C@H]1C(=O)N1CCC[C@H]1C(=O)N2` [TxIB(G)] (H-GCCSDPPCRNKHPDLCG-NH2; disulfide 2-8, 3-16), the IC50 (α3β2 nAChR) was greater than 10 µM, the IC50 (α6/α3β4 nAChR) was greater than 10 µM and the IC50 (α3β4 nAChR) was greater than 10 µM. For the same molecule, the IC50 (α6/α3β2β3 nAChR) was 0.247 µM, the “Ratio of half-blocking dose (IC50) between TxIB(G) and TxIB” value (α6/α3β2β3 nAChR) was 8.7 and the IC50 (α7 nAChR) was greater than 10 µM. The IC50 (α2β4 nAChR) was greater than 10 µM, the IC50 (α9α10 nAChR) was greater than 10 µM and the IC50 (α2β2 nAChR) was greater than 10 µM. The IC50 (α4β2 nAChR) was greater than 10 µM, the IC50 (α4β4 nAChR) was greater than 10 µM and the “blocking activity on human α6/α3β2β3 nAChR” value (human α6/α3β2β3 nAChR) was “blocking activity similar to those for rat α6/α3β2β3 nAChR”.

In the case of GCCSHPACNVNNPHIC* [RegIIA], the IC50 [1] is given as 0.097 µM, the IC50 [2] is given as 0.033 µM and the IC50 [3] is given as 0.103 µM.

For RDPCCSNPVCTVHNPQIC* [PIA], the IC50 [1] is given as 0.518 µM, the IC50 [4] is given as 0.001 to 0.0017 µM and the IC50 [5] is given as 0.0126 to 0.0305 µM. For the same molecule, the IC50 [2] was 0.0742 µM.

In the case of `CC[C@H](C)[C@@H]1NC(=O)[C@@H]2CCCN2C(=O)[C@H](CO)NC(=O)[C@H](CCSC)NC(=O)[C@H](C)NC(=O)[C@H](CO)NC(=O)[C@@H]2CSSC[C@H](NC(=O)CN)C(=O)N[C@@H](CSSC[C@@H](C(N)=O)NC1=O)C(=O)N[C@@H](CO)C(=O)N[C@@H](Cc1c[nH]cn1)C(=O)N1CCC[C@H]1C(=O)N[C@@H](C(C)C)C(=O)N2` [TxIC], the “Hill slope of dose-response curve” value (α6/α3β4 nAChR) is reported as 0.26 (0.73-1.87), the “Hill slope of dose-response curve” value (α3β4 nAChR) is reported as 0.19 (0.66-1.44) and the “blocking of ACh-gated current” value (α3β4 nAChR) is reported as “specifically blocked; also recorded: completely blocked”. The “blocking of ACh-gated current” value (α7 nAChR) was “totally does not block; also recorded: no blocking activity”, the “Hill slope of dose-response curve” value (α2β4 nAChR) was 0.20 (1.48-2.42) and the “blocking of ACh-gated current” value (α4β4 nAChR) was “totally does not block; also recorded: no blocking activity”. For the same molecule, the IC50 (other nAChRs subtypes) was greater than 10 µM.

In the case of GCCSDPRCNYDHPEIC* [Vc1.1], the IC50 [4] is listed as 0.14 µM, the IC50 [5] is listed as 0.98 µM and the IC50 [2] is listed as 7.3 µM. The IC50 [6] was 0.019 µM.

In the case of RTCCSRPTCRMEYPELC*grr [SrIA/SrIB], the nAChRs selectivity (nAChRs) is listed as “Muscle nAChR/α4β2”.

For GCCSHPACSVNHPELC* [PeIA], the IC50 [1] is given as 0.48 µM, the IC50 [2] is given as 0.023 to 0.0975 µM and the IC50 [3] is given as 1.8 µM. The IC50 [6] was 0.0069 to 0.0549 µM.

In the case of NGRCC-HPACGKHFN--C* [Ac1.1a], the nAChRs selectivity (nAChRs) is listed as “Muscle nAChR”.

With `CC(C)C[C@@H]1NC(=O)[C@H](CC(=O)O)NC(=O)[C@@H]2CCCN2C(=O)[C@H](Cc2c[nH]cn2)NC(=O)[C@H](CCCCN)NC(=O)[C@H](CC(N)=O)NC(=O)[C@H](CCCNC(=N)N)NC(=O)[C@@H]2CSSC[C@H](NC(=O)CN)C(=O)N[C@@H](CSSC[C@@H](C(N)=O)NC1=O)C(=O)N[C@@H](CO)C(=O)N[C@@H](CC(=O)O)C(=O)N1CCC[C@H]1C(=O)N1CCC[C@H]1C(=O)N2` [TxIB] (H-GCCSDPPCRNKHPDLC-NH2; disulfide 2-8, 3-16) the “blocking of ACh-gated current” value (α3β2 nAChR) was “totally does not block; also recorded: no blocking activity”, the “blocking of ACh-gated current” value (α6/α3β4 nAChR) was “totally does not block; also recorded: no blocking activity” and the “blocking of ACh-gated current” value (α3β4 nAChR) was “totally does not block; also recorded: no blocking activity”. The “Hill slope of dose-response curve” value (α6/α3β2β3 nAChR) was 0.51 (0.41-0.60), the “Ratio of half-blocking dose (IC50) between TxIB(G) and TxIB” value (α6/α3β2β3 nAChR) was 1 and the “blocking of ACh-gated current” value (α6/α3β2β3 nAChR) was “specifically blocked; also recorded: almost total blocked”. For the same molecule, the “blocking activity on human α6/α3β2β3 nAChR” value (human α6/α3β2β3 nAChR) was “blocking activity similar to those for rat α6/α3β2β3 nAChR” and the IC50 (other nAChRs subtypes) was greater than 10 µM.

For GCCSYPPCFATNP-DC* [AuIB], the IC50 [1] is given as 0.75 µM.

Work on `CC(C)C[C@@H]1NC(=O)[C@H](CC(=O)O)NC(=O)[C@@H]2CCCN2C(=O)[C@H](Cc2cnc[nH]2)NC(=O)[C@H](CCCCN)NC(=O)[C@H](CC(N)=O)NC(=O)[C@H](CCCNC(=N)N)NC(=O)[C@@H]2CSSC[C@H](NC(=O)CN)C(=O)N[C@@H](CSSC[C@@H](C(N)=O)NC1=O)C(=O)N[C@@H](CO)C(=O)N[C@@H](CC(=O)O)C(=O)N1CCC[C@H]1C(=O)N1CCC[C@H]1C(=O)N2` [TxIB] (H-GCCSDPPCRNKHPDLC-NH2; disulfide 2-8, 3-16) yielded an IC50 (α3β2 nAChR) greater than 10 µM, an IC50 (α6/α3β4 nAChR) greater than 10 µM and an IC50 (α3β4 nAChR) greater than 10 µM. It also gave an IC50 (α6/α3β2β3 nAChR) of 0.0284 µM, an IC50 (α7 nAChR) greater than 10 µM and an IC50 (α2β4 nAChR) greater than 10 µM. The IC50 (α9α10 nAChR) was greater than 10 µM, the IC50 (α2β2 nAChR) was greater than 10 µM and the IC50 (α4β2 nAChR) was greater than 10 µM. The IC50 (α4β4 nAChR) was greater than 10 µM.

For GCCSDPPCRNKHPDLCG (not fully specified; ends and bridges not checked) [α-conotoxin TxIB/Txd4(G)], the IC50 (half-blocking dose) on ACh-gated current [7] was 0.247 µM, the IC50 (half-blocking dose) on ACh-gated current (rat α6/α3β4 nAChR (rat)) was greater than 10 µM and the “IC50 (half-blocking dose) on ACh-gated current” value (“IC50 (half-blocking dose)” for short) (rat α2β4 nAChR) was greater than 10 µM. The “IC50 (half-blocking dose)” value (rat α9α10 nAChR) was greater than 10 µM, the “IC50 (half-blocking dose)” value (rat α2β2 nAChR) was greater than 10 µM and the “IC50 (half-blocking dose)” value (rat α4β2 nAChR) was greater than 10 µM. For the same molecule, the “IC50 (half-blocking dose)” value (rat α4β4 nAChR) was greater than 10 µM, the “IC50 (half-blocking dose)” value (rat α3β2 nAChR) was greater than 10 µM and the “IC50 (half-blocking dose)” value (rat α3β4 nAChR) was greater than 10 µM. The “IC50 (half-blocking dose)” value (rat α7 nAChR) was greater than 10 µM.

For GCCSDPPCRNKHPDLC (not fully specified; ends and bridges not checked) [α-conotoxin TxIB/Txd4], the IC50 (half-blocking dose) on ACh-gated current [7] was 0.0284 µM, the IC50 (half-blocking dose) on ACh-gated current (rat α6/α3β4 nAChR (rat)) was greater than 10 µM and the “IC50 (half-blocking dose)” value (rat α2β4 nAChR) was greater than 10 µM. The “IC50 (half-blocking dose)” value (rat α9α10 nAChR) was greater than 10 µM, the “IC50 (half-blocking dose)” value (rat α2β2 nAChR) was greater than 10 µM and the “IC50 (half-blocking dose)” value (rat α4β2 nAChR) was greater than 10 µM. For the same molecule, the “IC50 (half-blocking dose)” value (rat α4β4 nAChR) was greater than 10 µM, the “IC50 (half-blocking dose)” value (rat α3β2 nAChR) was greater than 10 µM and the “IC50 (half-blocking dose)” value (rat α3β4 nAChR) was greater than 10 µM. The “IC50 (half-blocking dose)” value (rat α7 nAChR) was greater than 10 µM.
